What was measured:
[1] = Ratio of free plasma concentration in rat measured after 3 hrs to IC50 of P2X3 (unknown origin); assay type: ADME
[2] = Free plasma concentration in rat plasma at 1 mg/kg administered as cassette dose; assay type: ADME, organism-based; conditions: in vivo
[3] = Ratio of plasma concentration in rat measured after 3 hrs to IC50 of P2X3 (unknown origin); assay type: ADME; conditions: in vivo
[4] = Protein binding in rat plasma assessed as unbound fraction at 1 mg/kg administered as cassette dose; assay type: ADME, organism-based
[5] = test system: Rattus norvegicus; experiment: Analgesic activity in rat model of partial sciatic nerve ligation-induced neuropathic pain assessed as reversal of allodynia at 3 mg/kg, po measured after 3 hrs relative to control; assay type: functional
[6] = Oral bioavailability in rat at 1 mg/kg administered as cassette dose; assay type: ADME, organism-based; conditions: in vivo
[7] = target: T1, P2X purinoceptor 3 (Homo sapiens, UniProt P56373); experiment: Antagonist activity at P2X3 receptor (unknown origin)
T1 sequence (P56373 whole entry): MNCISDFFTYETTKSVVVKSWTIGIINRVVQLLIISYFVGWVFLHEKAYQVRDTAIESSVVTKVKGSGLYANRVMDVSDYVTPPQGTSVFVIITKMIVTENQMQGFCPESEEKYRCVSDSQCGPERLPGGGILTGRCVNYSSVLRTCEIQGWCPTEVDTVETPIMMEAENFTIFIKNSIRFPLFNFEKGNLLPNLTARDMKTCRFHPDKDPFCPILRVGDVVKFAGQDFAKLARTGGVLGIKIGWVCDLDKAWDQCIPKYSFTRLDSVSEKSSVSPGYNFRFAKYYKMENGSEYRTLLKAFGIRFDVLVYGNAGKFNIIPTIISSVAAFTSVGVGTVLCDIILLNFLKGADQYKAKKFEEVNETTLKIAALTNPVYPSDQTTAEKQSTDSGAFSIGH

Row | Ratio [1] | Cp(f) [2] | Ratio [3] | fraction unbound [4] | bioavailability [6] | IC50 [7] | Compound | Activity [5]
1 | 2.91 | 827 nM | 42.8 | 0.068 | 88.8% | – | CC(C)Oc1ccc(/N=c2\[nH]c(=O)n(C[C@H](C)C(=O)O)c(=O)n2Cc2ccc(Cl)cc2)cc1 | 2%
2 | 1.16 | 924 nM | 57.8 | 0.02 | 102% | – | Cc1cc(/N=c2\[nH]c(=O)n(C[C@H](C)C(=O)O)c(=O)n2Cc2ccc(Cl)cc2)ccc1OC(C)C | 13%
3 | 0.52 | 1537 nM | 171.8 | 0.003 | 82.4% | – | CC(C)Oc1ccc(/N=c2\[nH]c(=O)n(C[C@H](C)C(=O)O)c(=O)n2Cc2ccc(Cl)cc2)cc1Cl | 26%
4 | 0.2 | 3095 nM | 204.9 | 0.001 | 48.1% | – | CC(C)Oc1ccc(Nc2nc(=O)n(CCO)c(=O)n2Cc2ccc(Cl)cc2)cc1Cl | –
5 | 1.31 | 1126 nM | 145.2 | 0.009 | 96% | 7.8 nM | CC(C)Oc1ccc(/N=c2\[nH]c(=O)n(C[C@H](C)C(=O)O)c(=O)n2Cc2ccc(Cl)cc2)cc1F | 23%
6 | 0.27 | 597 nM | 89.2 | 0.003 | 54.8% | 6.7 nM | CC(C)Oc1ccc(Nc2nc(=O)n(CC(CO)CO)c(=O)n2Cc2ccc(Cl)cc2)cc1Cl | –
7 | 1.38 | 692 nM | 98.9 | 0.014 | 73.1% | – | Cc1ccc(Cn2c(=O)n(C[C@H](C)C(=O)O)c(=O)[nH]/c2=N\c2ccc(OC(C)C)c(Cl)c2)cc1 | 3%
8 | 0.24 | 1600 nM | 119.4 | 0.002 | 43.2% | – | CC(C)Oc1ccc(/N=c2\[nH]c(=O)n(CCCC(=O)O)c(=O)n2Cc2ccc(Cl)cc2)cc1Cl | –
9 | 0.31 | 711 nM | 103.5 | 0.003 | 36.2% | 6.9 nM | CC(C)Oc1ccc(Nc2nc(=O)n(CCCO)c(=O)n2Cc2ccc(Cl)cc2)cc1Cl | –
10 | 0.22 | 485 nM | 72.4 | 0.003 | 85.3% | 6.7 nM | CC(C)Oc1ccc(/N=c2\[nH]c(=O)n(CC(C)(C)C(=O)O)c(=O)n2Cc2ccc(Cl)cc2)cc1Cl | –
11 | 0.14 | 139 nM | 14.2 | 0.01 | 30.7% | 9.8 nM | Cc1ccc(Cn2c(=O)n(CC(C)(C)C(=O)O)c(=O)[nH]/c2=N\c2ccc(OC(C)C)c(Cl)c2)cc1 | –
12 | – | 1267 nM | – | 0.003 | 71.2% | – | CC(C)Oc1ccc(Nc2nc(=O)n(CCC(=O)O)c(=O)n2Cc2ccc(Cl)cc2)cc1Cl | 6%
13 | 0.59 | 3655 nM | 294.8 | 0.002 | 108% | – | Cc1ccc(Cn2c(=O)n(CCCC(=O)O)c(=O)[nH]/c2=N\c2ccc(OC(C)C)c(Cl)c2)cc1 | 20%
14 | 0.12 | 1001 nM | 62.2 | 0.002 | 108% | – | CC(C)Oc1ccc(/N=c2\[nH]c(=O)n(C[C@@H](C)C(=O)O)c(=O)n2Cc2ccc(Cl)cc2)cc1Cl | –
15 | 1.02 | 330 nM | 56.2 | 0.018 | 56.5% | 5.8 nM | C[C@@H](Cn1c(=O)[nH]/c(=N\c2ccc(Oc3cnccn3)cc2)n(Cc2ccc(Cl)cc2)c1=O)C(=O)O | –
16 | 0.46 | 462 nM | 30.4 | 0.015 | 54.3% | – | C[C@@H](Cn1c(=O)[nH]/c(=N\c2ccc(OC3CCC3)cc2)n(Cc2ccc(Cl)cc2)c1=O)C(=O)O | –
17 | 0.79 | 643 nM | 37.6 | 0.021 | 45.6% | – | C[C@@H](Cn1c(=O)[nH]/c(=N\c2ccc(OCC3CC3)cc2)n(Cc2ccc(Cl)cc2)c1=O)C(=O)O | –
18 | – | – | – | – | – | 8.6 nM | C[C@@H](Cn1c(=O)[nH]/c(=N\c2ccc(Oc3cccnc3)cc2)n(Cc2ccc(Cl)cc2)c1=O)C(=O)O | –
19 | – | 473 nM | – | 0.011 | 82.4% | – | C[C@@H](Cn1c(=O)[nH]/c(=N\c2ccc(Oc3ccc(F)cn3)cc2)n(Cc2ccc(Cl)cc2)c1=O)C(=O)O | –
20 | 0.29 | 253 nM | 11.5 | 0.025 | 48.7% | – | CC(C)COc1ccc(/N=c2\[nH]c(=O)n(C[C@H](C)C(=O)O)c(=O)n2Cc2ccc(Cl)cc2)cc1 | –
21 | – | 456 nM | – | 0.007 | 60% | – | C[C@@H](Cn1c(=O)[nH]/c(=N\c2ccc(Oc3cccc(F)n3)cc2)n(Cc2ccc(Cl)cc2)c1=O)C(=O)O | –
22 | – | – | – | – | – | 5.2 nM | C[C@@H](Cn1c(=O)[nH]/c(=N\c2ccc(Oc3ccncc3)cc2)n(Cc2ccc(Cl)cc2)c1=O)C(=O)O | –
23 | 0.2 | 240 nM | 48.9 | 0.004 | 40.2% | 4.9 nM | CC.C[C@@H](Cn1c(=O)[nH]/c(=N\c2ccc(Oc3cc(F)ccn3)cc2)n(Cc2ccc(Cl)cc2)c1=O)C(=O)O | –
24 | – | 319 nM | – | 0.006 | 41.4% | – | C[C@@H](Cn1c(=O)[nH]/c(=N\c2ccc(Oc3nccs3)cc2)n(Cc2ccc(Cl)cc2)c1=O)C(=O)O | –
25 | – | 529 nM | – | 0.02 | 74.3% | – | C[C@@H](Cn1c(=O)[nH]/c(=N\c2ccc(Oc3cncc(F)c3)cc2)n(Cc2ccc(Cl)cc2)c1=O)C(=O)O | –
26 | 0.12 | 64 nM | 8.3 | 0.014 | 30.2% | 7.7 nM | C[C@@H](Cn1c(=O)[nH]/c(=N\c2ccc(Oc3cccnn3)cc2)n(Cc2ccc(Cl)cc2)c1=O)C(=O)O | –

Row | Compound | Ratio [1] | Cp(f) [2] | Ratio [3] | fraction unbound [4] | bioavailability [6] | IC50 [7] | Activity [5]
27 | CC(C)Oc1ccc(/N=c2\[nH]c(=O)n(C[C@@H](O)CO)c(=O)n2Cc2ccc(Cl)cc2)cc1Cl | 0.28 | 1627 nM | 284.5 | 0.001 | 63% | 5.7 nM | –
28 | CC(C)Oc1ccc(/N=c2\[nH]c(=O)n(C[C@H](O)CO)c(=O)n2Cc2ccc(Cl)cc2)cc1Cl | – | – | – | – | – | 10.4 nM | –

From ChEMBL document CHEMBL5030545, “Discovery of clinical candidate Sivopixant (S-600918): Lead optimization of dioxotriazine derivatives as selective P2X3 receptor antagonists” (Bioorg Med Chem Lett, 2021)
